This data set is described as follows: Ring-closing metathesis (C=C formation) of fluorous-tagged (FDIPES) terminal dienes with Hoveyda-Grubbs 2nd generation catalyst (typically 2 mol%, 1-5 mol%), usually with 1,4-benzoquinone (4-10 mol%); quench P(CH2OH)3/Et3N/silica. The following applies: MTBE, 2.0 mM, 55.0 °C.

For five compounds, ring closure, isolated yield results are on record in publication PMC5488202.

Turning to `CC(C)[Si](CCC(F)(F)C(F)(F)C(F)(F)C(F)(F)C(F)(F)C(F)(F)C(F)(F)C(F)(F)F)(OC[C@H]1COCC=CCOc2ccccc2COC(=O)N(S(=O)(=O)c2ccccc2[N+](=O)[O-])Cc2cccc(c2)CN1S(=O)(=O)c1ccccc1[N+](=O)[O-])C(C)C` [37 (17+10; E/Z 70:30)], the ring closure, isolated yield (from C=CCOC[C@H](CO[Si](CCC(F)(F)C(F)(F)C(F)(F)C(F)(F)C(F)(F)C(F)(F)C(F)(F)C(F)(F)F)(C(C)C)C(C)C)N(Cc1cccc(CN(C(=O)OCc2ccccc2OCC=C)S(=O)(=O)c2ccccc2[N+](=O)[O-])c1)S(=O)(=O)c1ccccc1[N+](=O)[O-], 20-membered ring, 60.0 h) worked out at 78%.

In the case of `CC(C)[Si](CCC(F)(F)C(F)(F)C(F)(F)C(F)(F)C(F)(F)C(F)(F)C(F)(F)C(F)(F)F)(OC[C@H]1CC=CCCN(S(=O)(=O)C(F)(F)F)Cc2ccccc2CN1S(=O)(=O)c1ccccc1[N+](=O)[O-])C(C)C` [26 (13+12; E/Z >98:<2)], the ring closure, isolated yield (from C=CCCN(Cc1ccccc1CN([C@H](CC=C)CO[Si](CCC(F)(F)C(F)(F)C(F)(F)C(F)(F)C(F)(F)C(F)(F)C(F)(F)C(F)(F)F)(C(C)C)C(C)C)S(=O)(=O)c1ccccc1[N+](=O)[O-])S(=O)(=O)C(F)(F)F, 12-membered ring, 6.0 h) was found to be 76%.

In turn, `CC(C)[Si](CCC(F)(F)C(F)(F)C(F)(F)C(F)(F)C(F)(F)C(F)(F)C(F)(F)C(F)(F)F)(OC[C@H]1COCC=CCC[C@@H](O[Si](C)(C)C(C)(C)C)[C@H](C)C(=O)N(S(=O)(=O)c2ccccc2[N+](=O)[O-])Cc2cccc(c2)CN1S(=O)(=O)c1ccccc1[N+](=O)[O-])C(C)C` [19 (from 18; Z 50% + E 40%)] registered a ring closure, isolated yield (from C=CCC[C@@H](O[Si](C)(C)C(C)(C)C)[C@H](C)C(=O)N(Cc1cccc(CN([C@H](COCC=C)CO[Si](CCC(F)(F)C(F)(F)C(F)(F)C(F)(F)C(F)(F)C(F)(F)C(F)(F)C(F)(F)F)(C(C)C)C(C)C)S(=O)(=O)c2ccccc2[N+](=O)[O-])c1)S(=O)(=O)c1ccccc1[N+](=O)[O-], 18-membered ring, 48.0 h) of 90%. For the setting “from C=CCOC[C@@H](COC(=O)N(Cc1ccc(CN([C@H](CC=C)CO[Si](CCC(F)(F)C(F)(F)C(F)(F)C(F)(F)C(F)(F)C(F)(F)C(F)(F)C(F)(F)F)(C(C)C)C(C)C)S(=O)(=O)c2ccccc2[N+](=O)[O-])s1)S(=O)(=O)c1ccccc1[N+](=O)[O-])c1ccc(OC)cc1OC, 18-membered ring, 24.0 h”, `COc1ccc([C@H]2COCC=CC[C@H](CO[Si](CCC(F)(F)C(F)(F)C(F)(F)C(F)(F)C(F)(F)C(F)(F)C(F)(F)C(F)(F)F)(C(C)C)C(C)C)N(S(=O)(=O)c3ccccc3[N+](=O)[O-])CC3=CC=C(CN(S(=O)(=O)c4ccccc4[N+](=O)[O-])C(=O)OC2)S3)c(OC)c1` [21 (15+9, from 20; 2 steps RCM + denosylation; E/Z 65:35)] registered a ring closure, isolated yield of 34%. `CC(C)[Si](CCC(F)(F)C(F)(F)C(F)(F)C(F)(F)C(F)(F)C(F)(F)C(F)(F)C(F)(F)F)(OC[C@H]1CC=CCOc2ccccc2COC(=O)N(S(=O)(=O)c2ccccc2[N+](=O)[O-])Cc2cccc(c2)CN1S(=O)(=O)c1ccccc1[N+](=O)[O-])C(C)C` (mixture of isomers) [28 (14+10; unchromatographed E/Z mixture)] returned a ring closure, isolated yield (from C=CCOc1ccccc1COC(=O)N(Cc1cccc(CN([C@H](CC=C)CO[Si](CCC(F)(F)C(F)(F)C(F)(F)C(F)(F)C(F)(F)C(F)(F)C(F)(F)C(F)(F)F)(C(C)C)C(C)C)S(=O)(=O)c2ccccc2[N+](=O)[O-])c1)S(=O)(=O)c1ccccc1[N+](=O)[O-], 18-membered ring, 24.0 h) of 88%.
